From ChEMBL document CHEMBL5338766, “X-ray Crystal Structure-Guided Discovery of Novel Indole Analogues as Colchicine-Binding Site Tubulin Inhibitors with Immune-Potentiating and Antitumor Effects against Melanoma” (J Med Chem, 2023)
Calls of active or inactive are those of the source. The calls are words filed in the database; no cut-off is given here.

Experiments:
HepG2 [1] = experiment: Induction of apoptosis in human HepG2 cells assessed as early apoptotic cells at 0.5 nM incubated for 48 hrs by Annexin V-FITC/PI staining based flow cytometric analysis (reference value: 7.01 %); type: functional
[2] = Apparent volume of distribution in Sprague-Dawley rat at 2 mg/kg, iv measured upto 12 hrs by UPLC-MS/ESI analysis; type: ADME, organism-based; conditions: in vivo, read-out: Vz
[3] = Toxicity in C57 mouse implanted with mouse B16-F10 cells assessed as pathological changes in kidney at 2.5 mg/kg, ip administered every day for 14 days in the presence of NP19 by H&E staining based microscopic analysis; type: organism-based; conditions: in vivo, 336 h, time 14 day
HepG2 [4] = experiment: Cell cycle arrest in human HepG2 cells assessed as accumulation of cells at S phase at 0.5 nM incubated for 48 hrs by RNaseA/PI staining based flow cytometric analysis (reference value: 23.81%); type: functional
HepG2 [5] = experiment: Induction of apoptosis in human HepG2 cells assessed as viable cells at 0.5 nM incubated for 48 hrs by Annexin V-FITC/PI staining based flow cytometric analysis (reference value: 87.6%); type: functional; conditions: read-out: Activity
[6] = Oral bioavailability in Sprague-Dawley rat at 20 mg/kg measured upto 12 hrs by UPLC-MS/ESI analysis; type: ADME, organism-based; conditions: in vivo
[7] = Antiproliferative activity against paclitaxel resistant human A549/TxR cells assessed as inhibition of cell proliferation incubated for 48 hrs by MTT assay; type: functional, cell-based
Tubulin = experiment: Binding affinity to tubulin (unknown origin) assessed as affinity constant by SPR analysis; type: protein-complex assay, Homo sapiens
[8] = Toxicity in C57 mouse implanted with mouse B16-F10 cells assessed as body weight loss at 5 mg/kg, ip administered every day for 14 days; type: organism-based; conditions: in vivo, 336 h, time 14 day
HepG2 [9] = experiment: Antimigratory activity in human HepG2 cells assessed as reduction in recovery area at 5 nM incubated for 24 hrs by wound healing assay (reference value: 65.84%); type: functional; set-up: scale not given: the % may be the effect or the level left
B16-F10 [10] = experiment: Antitumor activity against mouse B16-F10 cells implanted in C57 mouse assessed as reduction in tumor volume at 2.5 mg/kg, ip administered every day for 14 days in the presence of NP19; type: functional, organism-based; conditions: time 14.0 day
HepG2 [11] = experiment: Antiproliferative activity against human HepG2 cells assessed as inhibition of cell proliferation incubated for 48 hrs by MTT assay; type: functional, cell-based; conditions: HepG2, 48 h
B16-F10 [12] = experiment: Antitumor immunity in C57 mouse implanted with mouse B16-F10 cells assessed as increase in CD3+ CD8+ cytotoxic T cells in tumor at 2.5 mg/kg, ip administered every day for 14 days in the presence of NP19 by flow cytometric analysis (reference value: 0.340%); type: functional; conditions: time 14 day
[13] = Toxicity in C57 mouse implanted with mouse B16-F10 cells assessed as pathological changes in kidney at 5 mg/kg, ip administered every day for 14 days by H&E staining based microscopic analysis; type: organism-based; conditions: in vivo, 336 h, time 14 day
[14] = Toxicity in C57 mouse implanted with mouse B16-F10 cells assessed as pathological changes in liver at 5 mg/kg, ip administered every day for 14 days by H&E staining based microscopic analysis; type: organism-based; conditions: in vivo, 336 h, time 14 day
HepG2 [15] = experiment: Induction of apoptosis in human HepG2 cells assessed as viable cells at 5 nM incubated for 48 hrs by Annexin V-FITC/PI staining based flow cytometric analysis (reference value: 87.6%); type: functional; conditions: read-out: Activity
HepG2 [16] = experiment: Antimigratory activity in human HepG2 cells assessed as reduction in recovery area at 0.5 nM incubated for 24 hrs by wound healing assay (reference value: 65.84%); type: functional; set-up: scale not given: the % may be the effect or the level left
[17] = Apparent volume of distribution in Sprague-Dawley rat at 20 mg/kg, po measured upto 12 hrs by UPLC-MS/ESI analysis; type: ADME, organism-based; conditions: in vivo
[18] = Cmax in Sprague-Dawley rat at 2 mg/kg, iv measured upto 12 hrs by UPLC-MS/ESI analysis; type: ADME, organism-based; set-up: dose 2 mg/kg, time < 12 hrs, route iv; conditions: in vivo
[19] = MRT (0 to infinity) in Sprague-Dawley rat at 20 mg/kg, po measured upto 12 hrs by UPLC-MS/ESI analysis; type: ADME, organism-based; conditions: in vivo
[20] = Acute toxicity in C57 mouse assessed as survival rate at 51.2 mg/kg, po administered daily for 14 days relative to control; type: organism-based; conditions: in vivo, time 14 day, read-out: Activity
HepG2 [21] = experiment: Induction of apoptosis in human HepG2 cells assessed as necrotic cells at 1 nM incubated for 48 hrs by Annexin V-FITC/PI staining based flow cytometric analysis (reference value: 0.443%); type: functional
[22] = MRT(0 to infinity) in Sprague-Dawley rat at 2 mg/kg, iv measured upto 12 hrs by UPLC-MS/ESI analysis; type: ADME, organism-based; conditions: in vivo
B16-F10 [23] = experiment: Antitumor immunity in C57 mouse implanted with mouse B16-F10 cells assessed as increase in CD3+ CD8+ cytotoxic T cells in tumor at 5 mg/kg, ip administered every day for 14 days by flow cytometric analysis (reference value: 0.340%); type: functional; conditions: time 14 day
[24] = MRT (0 to t) in Sprague-Dawley rat at 20 mg/kg, po measured upto 12 hrs by UPLC-MS/ESI analysis; type: ADME, organism-based; conditions: in vivo
HepG2 [25] = experiment: Induction of apoptosis in human HepG2 cells assessed as late apoptotic cells at 5 nM incubated for 48 hrs by Annexin V-FITC/PI staining based flow cytometric analysis (reference value: 4.96 %); type: functional
[26] = Tmax in Sprague-Dawley rat at 2 mg/kg, iv measured upto 12 hrs by UPLC-MS/ESI analysis; type: ADME, organism-based; conditions: in vivo
[27] = Acute toxicity in C57 mouse assessed as survival rate at 64 mg/kg, po administered daily for 14 days relative to control; type: organism-based; conditions: in vivo, time 14 day, read-out: Activity
HepG2 [28] = experiment: Induction of apoptosis in human HepG2 cells assessed as late apoptotic cells at 1 nM incubated for 48 hrs by Annexin V-FITC/PI staining based flow cytometric analysis (reference value: 4.96 %); type: functional
HUVEC = experiment: Disruption of vasculature in HUVEC cells assessed as interruption of capillary like networks incubated for 6 hrs by phase contrast microscopic analysis; type: functional, cell-based; conditions: Homo sapiens, dose 0.5-5 nM
HepG2 [29] = experiment: Cell cycle arrest in human HepG2 cells assessed as accumulation of cells at […] at 5 nM incubated for 48 hrs by RNaseA/PI staining based flow cytometric analysis (reference value: 23.81%); type: functional
HepG2 [30] = experiment: Induction of apoptosis in human HepG2 cells assessed as viable cells at 1 nM incubated for 48 hrs by Annexin V-FITC/PI staining based flow cytometric analysis (reference value: 87.6%); type: functional; conditions: read-out: Activity
B16-F10 [31] = experiment: Antitumor immunity in C57 mouse implanted with mouse B16-F10 cells assessed as increase in CD3+ CD4+ helper T cells in tumor at 5 mg/kg, ip administered every day for 14 days by flow cytometric analysis (reference value: 0.332%); type: functional; conditions: time 14 day
HepG2 [32] = experiment: Inhibition of colony formation in human HepG2 cells incubated for 24 hrs by crystal violet staining based analysis; type: functional, cell-based; conditions: dose 0.5-5 nM
HepG2 [33] = experiment: Induction of apoptosis in human HepG2 cells assessed as early apoptotic cells at 5 nM incubated for 48 hrs by Annexin V-FITC/PI staining based flow cytometric analysis (reference value: 7.01 %); type: functional
HepG2 [34] = experiment: Cell cycle arrest in human HepG2 cells assessed as accumulation of cells at G1 phase at 1 nM incubated for 48 hrs by RNaseA/PI staining based flow cytometric analysis (reference value: 56.11%); type: functional

COc1cc(-c2nccc3[nH]c(-c4cccc5c4ccn5C)nc23)cc(OC)c1OC
Activity (HepG2 [1]): 8.59%
Vd [2]: 1.08 L/kg
Activity [3]: Non-Toxic
Activity (HepG2 [4]): 27.34%
viability at 0.0005 µM (HepG2 [5]): 84.6%
bioavailability [6]: 11%
IC50 [7]: 15.3 nM
Kd (Tubulin): 18300 nM
Activity [8]: Non-Toxic
Activity (HepG2 [9]): 22.16%
Activity (B16-F10 [10]): Active
IC50 (HepG2 [11]): 1 nM
Activity (B16-F10 [12]): 3.34%
Activity [13]: Non-Toxic
Activity [14]: Non-Toxic
viability at 0.005 µM (HepG2 [15]): 11%
Activity (HepG2 [16]): 42.2%
Vz [17]: 16.84 L/kg
Cmax [18]: 1730 ng/mL
MRT inf [19]: 3.24 h
survival at 336 h [20]: 90%
Activity (HepG2 [21]): 0.189%
MRT inf [22]: 1.86 h
Activity (B16-F10 [23]): 0.923%
MRT last at 12 h [24]: 3.06 h
Activity (HepG2 [25]): 5.74%
Tmax [26]: 4.98 min
survival at 336 h [27]: 60%
Activity (HepG2 [28]): 8.87%
Activity (HUVEC): Dose-Dependent Effect
Activity (HepG2 [29]): 22.8%
viability at 0.001 µM (HepG2 [30]): 59.6%
Activity (B16-F10 [31]): 0.954%
inhibition (HepG2 [32]): Dose-Dependent Effect
Activity (HepG2 [33]): 83.1%
Activity (HepG2 [34]): 41.37%
